Results on twelve molecules are retold here after US11866450B2, “Modulators of Cystic Fibrosis Transmembrane Conductance regulator, pharmaceutical compositions, methods of treatment, and process for making the modulators” (priority 2018, dated 2024).

The structures appear in SMILES notation.

This experiment concerns the target CFTR-mediated chloride transport (Homo sapiens, UniProt P13569). Format: cell-based. Particulars: enteroid cells incubated with test compound 18-24 hours, acute 10 μM forskolin and 300 nM Compound III; for Max. Activity: % of chloride transport with 3 μM Compound A, 3 μM Compound II and 300 nM acute Compound III triple combination control. As for the experimental part: Base medium (ADF+++) consisted of Advanced DMEM/Ham's F12, 2 mM Glutamax, 10 mM HEPES, […] penicillin/streptomycin.
Intestinal enteroid maintenance medium (IEMM) consisted of ADF+++, 1× B27 supplement, 1× N2 supplement, 1.25 mM N-acetyl cysteine, 10 mM Nicotinamide, 50 ng/mL hEGF, 10 nM Gastrin, 1 μg/mL hR-spondin-1, 100 ng/mL hNoggin, TGF-b type 1 inhibitor A-83-01, 100 μg/mL Primocin, 10 μM P38 MAPK inhibitor SB202190.
Bath 1 Buffer consisted of 1 mM MgCl2, 160 mM NaCl, 4.5 mM KCl, 10 mM HEPES, 10 mM Glucose, 2 mM CaCl2).
Chloride Free Buffer consisted of 1 mM Magnesium Gluconate, 2 mM Calcium Gluconate, 4.5 mM Potassium Gluconate, 160 mM Sodium Gluconate, 10 mM HEPES, 10 mM Glucose.
Bath1 Dye Solution consisted of Bath 1 Buffer, 0.04% Pluronic F127, 20 μM Methyl Oxonol, 30 μM CaCCinh-A01, 30 μM Chicago Sky Blue.
Chloride Free Dye Solution consisted of Chloride Free Buffer, 0.04% Pluronic F127, 20 μM Methyl Oxonol, 30 μM CaCCinh-A01, 30 μM Chicago Sky Blue.
Chloride Free Dye Stimulation Solution consisted of Chloride Free Dye Solution, 10 μM forskolin, 100 μM IBMX, and 300 nM Compound III.
Human intestinal epithelial enteroid cells were obtained from the Hubrecht Institute for Developmental Biology and Stem Cell Research, Utrecht, The Netherlands and expanded in T-Flasks as previously described (Dekkers J F, Wiegerinck C L, de Jonge H R, Bronsveld I, Janssens H M, de Winter-de Groot K M, Brandsma A M, de Jong N W M, Bijvelds M J C, Scholte B J, Nieuwenhuis E E S, van den Brink S, Clevers H, van der Ent C K, Middendorp S and M Beekman J M. A functional CFTR assay using primary cystic fibrosis intestinal organoids. Nat Med. 2013 July; 19(7):939-45).
Cells were recovered in cell recovery solution, collected by centrifugation at 650 rpm for 5 min at 4° C., resuspended in TryPLE and incubated for 5 min at 37° C. Cells were then collected by centrifugation at 650 rpm for 5 min at 4° C. and resuspended in IEMM containing 10 μM ROCK inhibitor (RI) (trans-4-[(1R)-1-aminoethyl]-N-4-pyridinylcyclohexanecarboxamide). The cell suspension was passed through a 40 μm cell strainer and resuspended at 1×10^6 cells/mL in IEMM containing 10 μM RI. Cells were seeded at 5000 cells/well into multi-well plates and incubated for overnight at 37° C., 95% humidity and 5% CO2 prior to assay.
Enteroid cells were incubated with test compound in IEMM for 18-24 hours at 37° C., 95% humidity and 5% CO2. Following compound incubations, a membrane potential dye assay was employed using a FLIPR Tetra to directly measure the potency and efficacy of the test compound on CFTR-mediated chloride transport following acute addition of 10 μM forskolin and 300 nM Compound III. Briefly, cells were washed 5 times in Bath 1 Buffer. Bath 1 Dye Solution was added and the cells were incubated for 25 min at room temperature. Following dye incubation, cells were washed 3 times in Chloride Free Dye Solution. Chloride transport was initiated by addition of Chloride Free Dye Stimulation Solution and the fluorescence signal was read for 15 min. The CFTR-mediated chloride transport for each condition was determined from the AUC of the fluorescence response to acute forskolin and 300 nM Compound III stimulation. Chloride transport was then expressed as a percentage of the chloride transport following treatment with 3 μM Compound A, 3 μM Compound II and 300 nM acute Compound III triple combination control (% Activity).

Chain of CFTR-mediated chloride transport (P13569 whole entry, looked up): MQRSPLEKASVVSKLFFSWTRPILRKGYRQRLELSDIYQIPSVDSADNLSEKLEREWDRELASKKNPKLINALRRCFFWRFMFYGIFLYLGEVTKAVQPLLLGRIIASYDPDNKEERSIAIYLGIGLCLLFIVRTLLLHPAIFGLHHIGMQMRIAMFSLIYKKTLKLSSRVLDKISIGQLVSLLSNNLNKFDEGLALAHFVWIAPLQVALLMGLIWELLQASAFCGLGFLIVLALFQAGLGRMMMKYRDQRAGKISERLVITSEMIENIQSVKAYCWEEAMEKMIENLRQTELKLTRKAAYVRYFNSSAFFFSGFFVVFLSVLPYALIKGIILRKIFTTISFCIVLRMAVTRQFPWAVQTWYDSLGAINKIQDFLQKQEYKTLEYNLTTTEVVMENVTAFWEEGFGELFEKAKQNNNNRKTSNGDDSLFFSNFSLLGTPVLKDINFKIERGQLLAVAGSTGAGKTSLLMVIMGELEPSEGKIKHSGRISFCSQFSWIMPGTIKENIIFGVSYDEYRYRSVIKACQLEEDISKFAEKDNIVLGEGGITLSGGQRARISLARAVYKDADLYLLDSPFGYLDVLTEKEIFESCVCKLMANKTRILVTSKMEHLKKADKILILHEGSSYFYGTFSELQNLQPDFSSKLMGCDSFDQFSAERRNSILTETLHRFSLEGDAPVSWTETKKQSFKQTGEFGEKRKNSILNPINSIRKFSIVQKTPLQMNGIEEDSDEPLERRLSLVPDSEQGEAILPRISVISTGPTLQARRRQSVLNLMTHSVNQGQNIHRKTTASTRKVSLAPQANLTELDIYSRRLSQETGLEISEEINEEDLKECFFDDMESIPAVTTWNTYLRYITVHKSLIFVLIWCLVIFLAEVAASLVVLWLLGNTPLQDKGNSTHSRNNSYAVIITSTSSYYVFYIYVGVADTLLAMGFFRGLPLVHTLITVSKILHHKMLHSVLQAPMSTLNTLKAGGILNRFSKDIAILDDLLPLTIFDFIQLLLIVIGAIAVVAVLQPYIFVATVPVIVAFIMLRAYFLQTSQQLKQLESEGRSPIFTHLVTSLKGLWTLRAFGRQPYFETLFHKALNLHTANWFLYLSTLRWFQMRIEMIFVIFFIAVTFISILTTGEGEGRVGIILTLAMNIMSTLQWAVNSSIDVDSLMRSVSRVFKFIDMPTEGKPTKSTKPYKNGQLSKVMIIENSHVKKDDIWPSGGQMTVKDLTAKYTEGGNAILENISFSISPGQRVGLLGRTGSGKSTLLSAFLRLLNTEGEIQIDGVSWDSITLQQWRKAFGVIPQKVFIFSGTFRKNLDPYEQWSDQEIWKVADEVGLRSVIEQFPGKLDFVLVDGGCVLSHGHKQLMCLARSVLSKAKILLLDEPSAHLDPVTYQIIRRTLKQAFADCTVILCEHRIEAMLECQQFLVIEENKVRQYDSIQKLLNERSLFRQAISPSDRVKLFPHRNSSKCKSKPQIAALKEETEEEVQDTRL

The term EC50 denotes the concentration needed to bring the measured effect to its halfway point. `CC1(C)C[C@H]2CCCCc3cccc(c3)S(=O)(=O)NC(=O)c3ccc(-n4ccc(OCCC5(C(F)(F)F)CC5)n4)nc3N1C2` (single isomer, unassigned) [Compound 57, 12,12-dimethyl-8-(3-{2-[1-(trifluoromethyl)cyclopropyl]ethoxy}-1H-pyrazol-1-yl)-2λ^6-thia-3,9,11-triazatetracyclo[17.3.1.111,14.05,10]tetracosa-1(22),5,7,9,19(23),20-hexaene-2,2,4-trione]: the EC50 was less than 1000 nM and the “Max. Activity” value is given as “++ (++ is 30-60%)”.

Consider `C[C@@H]1CC[C@H]2CN(c3nc(-n4ccc(OCCC5(C(F)(F)F)CC5)n4)ccc3C(=O)NS(=O)(=O)c3cccc(n3)N1)C(C)(C)C2` (single isomer, unassigned) [Compound 58, 12,12,17-trimethyl-8-(3-{2-[1-(trifluoromethyl)cyclopropyl]ethoxy}-1H-pyrazol-1-yl)-2λ^6-thia-3,9,11,18,23-pentaazatetracyclo[17.3.1.111,14.05,10]tetracosa-1(23),5(10),6,8,19,21-hexaene-2,2,4-trione], for which the EC50 was less than 1000 nM and the “Max. Activity” value is recorded as “+ (+ is <30%)”.

Consider `C[C@@H]1CC[C@H]2CN(c3nc(-n4ccc(OCCC5(C(F)(F)F)CC5)n4)ccc3C(=O)NS(=O)(=O)c3cccc(n3)N1)C(C)(C)C2` (single isomer, unassigned) [Compound 59, 12,12,17-trimethyl-8-(3-{2-[1-(trifluoromethyl)cyclopropyl]ethoxy}-1H-pyrazol-1-yl)-2λ^6-thia-3,9,11,18,23-pentaazatetracyclo[17.3.1.111,14.05,10]tetracosa-1(23),5(10),6,8,19,21-hexaene-2,2,4-trione], for which the EC50 was less than 1000 nM and the “Max. Activity” value is “+++ (+++ is >60%)”.

`C[C@@H]1CC[C@H]2CN(c3nc(-n4ccc(OCCC5(C(F)(F)F)CC5)n4)ccc3C(=O)NS(=O)(=O)c3cccc(n3)N1)C(C)(C)C2` (single isomer, unassigned) [Compound 60, 12,12,17-trimethyl-8-(3-{2-[1-(trifluoromethyl)cyclopropyl]ethoxy}-1H-pyrazol-1-yl)-2λ^6-thia-3,9,11,18,23-pentaazatetracyclo[17.3.1.111,14.05,10]tetracosa-1(23),5(10),6,8,19,21-hexaene-2,2,4-trione]: the EC50 is less than 1000 nM and the “Max. Activity” value was “+++ (+++ is >60%)”.

For `C[C@@H]1CC[C@H]2CN(c3nc(-n4ccc(OCCC5(C(F)(F)F)CC5)n4)ccc3C(=O)NS(=O)(=O)c3cccc(n3)N1)C(C)(C)C2` (single isomer, unassigned) [Compound 61, 12,12,17-trimethyl-8-(3-{2-[1-(trifluoromethyl)cyclopropyl]ethoxy}-1H-pyrazol-1-yl)-2λ^6-thia-3,9,11,18,23-pentaazatetracyclo[17.3.1.111,14.05,10]tetracosa-1(23),5(10),6,8,19,21-hexaene-2,2,4-trione], the EC50 was less than 1000 nM and the “Max. Activity” value is “+++ (+++ is >60%)”.

With `CC1(C)C[C@H]2CCCCCNc3cccc(n3)S(=O)(=O)NC(=O)c3ccc(-n4ccc(OCCC5(C(F)(F)F)CC5)n4)nc3N1C2` (single isomer, unassigned) [Compound 63, 12,12-dimethyl-8-(3-{2-[1-(trifluoromethyl)cyclopropyl]ethoxy}-1H-pyrazol-1-yl)-2λ^6-thia-3,9,11,20,25-pentaazatetracyclo[19.3.1.111,14.05,10]hexacosa-1(24),5,7,9,21(25),22-hexaene-2,2,4-trione], the EC50 is less than 1000 nM and the “Max. Activity” value is listed as “+++ (+++ is >60%)”.

Turning to `CC1(C)C[C@H]2CCCCCNc3cccc(n3)S(=O)(=O)NC(=O)c3ccc(-n4ccc(OCCC5(C(F)(F)F)CC5)n4)nc3N1C2` (single isomer, unassigned) [Compound 64, 12,12-dimethyl-8-(3-{2-[1-(trifluoromethyl)cyclopropyl]ethoxy}-1H-pyrazol-1-yl)-2λ^6-thia-3,9,11,20,25-pentaazatetracyclo[19.3.1.111,14.05,10]hexacosa-1(24),5,7,9,21(25),22-hexaene-2,2,4-trione], the EC50 is less than 1000 nM and the “Max. Activity” value is listed as “++ (++ is 30-60%)”.

As to `CC1(C)C[C@H]2CCCCNc3ccc(cn3)S(=O)(=O)NC(=O)c3ccc(-n4ccc(OCCC5(C(F)(F)F)CC5)n4)nc3N1C2` (single isomer, unassigned) [Compound 67, 12,12-dimethyl-8-(3-{2-[1-(trifluoromethyl)cyclopropyl]ethoxy}-1H-pyrazol-1-yl)-2λ^6-thia-3,9,11,19,21-pentaazatetracyclo[18.2.2.111,14.05,10]pentacosa-1(23),5,7,9,20(24),21-hexaene-2,2,4-trione], the EC50 is less than 1000 nM and the “Max. Activity” value is “+++ (+++ is >60%)”.

For `CC1(C)C[C@H]2CCCCNc3ccc(cn3)S(=O)(=O)NC(=O)c3ccc(-n4ccc(OCCC5(C(F)(F)F)CC5)n4)nc3N1C2` (single isomer, unassigned) [Compound 68, 12,12-dimethyl-8-(3-{2-[1-(trifluoromethyl)cyclopropyl]ethoxy}-1H-pyrazol-1-yl)-2λ^6-thia-3,9,11,19,21-pentaazatetracyclo[18.2.2.111,14.05,10]pentacosa-1(23),5,7,9,20(24),21-hexaene-2,2,4-trione], the EC50 is less than 1000 nM and the “Max. Activity” value was “++ (++ is 30-60%)”.

For the molecule `CC1(C)C[C@H]2CCCNc3ccc(cn3)S(=O)(=O)NC(=O)c3ccc(-n4ccc(OCCC5(C(F)(F)F)CC5)n4)nc3N1C2` (single isomer, unassigned) [Compound 72, 12,12-dimethyl-8-(3-{2-[1-(trifluoromethyl)cyclopropyl]ethoxy}-1H-pyrazol-1-yl)-2λ^6-thia-3,9,11,18,20-pentaazatetracyclo[17.2.2.111,14.05,10]tetracosa-1(22),5,7,9,19(23),20-hexaene-2,2,4-trione], the EC50 was more than 3000 nM and the “Max. Activity” value is listed as “+ (+ is <30%)”.

As to `CC1(C)C[C@H]2CCCNc3ccc(cn3)S(=O)(=O)NC(=O)c3ccc(-n4ccc(OCCC5(C(F)(F)F)CC5)n4)nc3N1C2` (single isomer, unassigned) [Compound 73, 12,12-dimethyl-8-(3-{2-[1-(trifluoromethyl)cyclopropyl]ethoxy}-1H-pyrazol-1-yl)-2λ^6-thia-3,9,11,18,20-pentaazatetracyclo[17.2.2.111,14.05,10]tetracosa-1(22),5,7,9,19(23),20-hexaene-2,2,4-trione], the EC50 is less than 1000 nM and the “Max. Activity” value is recorded as “+++ (+++ is >60%)”.

For the molecule `CC1(C)C[C@@H]2CN1c1nc(-n3ccc(OCCC4(C(F)(F)F)CC4)n3)ccc1C(=O)NS(=O)(=O)c1cccc(n1)NCCO2` (single isomer, unassigned) [Compound 74, 12,12-Dimethyl-8-(3-{2-[1-(trifluoromethyl)cyclopropyl]ethoxy}-1H-pyrazol-1-yl)-15-oxa-2λ^6-thia-3,9,11,18,23-pentaazatetracyclo[17.3.1.111,14.05,10]tetracosa-1(22),5(10),6,8,19(23),20-hexaene-2,2,4-trione], the EC50 lay in the range of 1000 to 3000 nM and the “Max. Activity” value was “+ (+ is <30%)”.
